Series [1] relates to SUM-149 cells. The series can be described thus: Colony formation assay. Format: cell-based, human. The settings on record: 72 h treatment, 10 d culture. The procedure: (§1) Cells commonly fail to bypass the G1 phase of the cycle due to mutations or DNA damage, which can result in apoptosis. […] In addition, caspase 3/7 activity assays were performed as an alternate method of apoptosis detection.
SUM-149 cells (1.5×10^6 cells/well) were plated on a 6-well plate. Two days later, cell media was changed to 5% FBS, and cells were incubated at 37° C. in a 5% CO2 atmosphere for 1 h before vehicle (0.1% DMSO) or EP (5-40 μM) was added. After 72 h of treatment, cells were trypsinized and reseeded at 200 cells/mL per well in 24-well plates. After 10 d of culture, colonies were visualized by crystal violet staining, and the colony numbers were counted under a microscope.

Series [2] concerns SUM-149 cells. The series can be described thus: Cell cycle assay. The class given is cell-based, human. As to conditions: EP 20 μM, 48 h. As for the experimental part: SUM-149 cells were treated for 48 h with EP, then collected and washed in 1×PBS. The cells (5×10^5) were fixed and permeabilized in 70% ethanol at −20° C. until further analysis. To measure the DNA content, the cells were washed and resuspended in 150 μL of PBS buffer then incubated in 100 μL of 100 μg/mL RNase A (MilliporeSigma, Burlington, MA) for 15 min at RT, then 250 μL of 50 μg/mL Propidium Iodide (MilliporeSigma) was added. Samples were incubated at RT for 10 min and analyzed on a BD FACS Canto II flow cytometer (BD Biosciences, San José, Calif.). Data were analyzed by using FlowJo software (V10, FlowJo LLC, Ashland, OR).

A further series concerns MDA-MB-231 GFP tumors. In words: In vivo tumor progression, MDA-MB-231-GFP mammary fat pad xenograft. The settings on record: 100 mg/kg BW i.p. three times per week, female SCID mice. As for the experimental part:
Female severe combined immunodeficient (SCID) mice (21 d of age) were purchased from Charles River Laboratories International Inc. (Wilmington, MA) and housed under specific pathogen free conditions. The mice received autoclaved AIN 76-A phytoestrogen-free diet (Tek Global, Harlan Teklad, Madison, WI) and water ad libitum. This protocol was approved by the Universidad Central del Caribe IACUC. Cell inoculations were performed as previously described by the inventors (PMID: 20517637, PMID: 23468988, PMID: 26958085, PMID: 30542507, PMID: 31658643). […] After tumor establishment the animals were randomly divided into control and experimental groups. Treatment started on week 5 post-inoculations when tumors were ˜100 mm^3. […]
The mice were imaged following tumor establishment, and once per week thereafter. Tumor progression was monitored by fluorescence image analysis taken on an UVP iBox Explorer (Analytik Jena, Upland, CA) and quantified as in PMID: 20517637. Relative tumor growth was calculated as the fluorescence intensity of each tumor on day of imaging. Quantification for tumor progression was calculated using the fluorescence intensity of each treated tumor relative to the fluorescence intensity of the same tumor on d 01 of treatment administration (week 5) using ImageJ software (National Institutes of Health, Bethesda, MD). […]

The subject of series [3] is SUM-149 cells. The series can be described thus: Annexin V apoptosis detection. The class given is cell-based, human. As to conditions: 20 μM, 48 h. As for the experimental part:
as §1
SUM-149 cells (5×10^5) were seeded and treated either with vehicle (0.1% DMSO) or with 20 μM of EP or with puromycin (200 ng/mL) as positive control for 48 h. After treatment floating cells were collected, and all cells were harvested and counted. Treated cells were analyzed for cell death by using the FITC Annexin-V/7AAD Apoptosis detection kit (product #640922, Biolegend, San Diego, CA) according to the manufacturer's instructions. Briefly, cells were resuspended in Annexin Binding Buffer, stained with Annexin V-FITC and/or 7-AAD, and incubated for 30 min at 4° C. Data were acquired on a BD FACS Canto II cytometer (BD Biosciences, San José, Calif.) and analyzed by using FlowJo software (V10, FlowJo LLC, Ashland, OR).

The test system of another series is SUM-149. In words: Cytotoxicity of EP probes via CTG assay. Format: cell-based, human. As to conditions: Homo sapiens, SUM149, 72 hr.
Series [4] concerns SUM-149 cells. In words: Cell viability assay (CellTiter-Glo or PI staining). Format: cell-based, human. As to conditions: for pEC50: Homo sapiens, read-out: EC50, SUM-149 cell viability. (In general: Cellular ATP, detected with luciferase, serves as a proxy for viable cell number.)
Description: (§2) Different concentrations of GLE-extracted bioactive chemical components were tested for 72-h treatment periods.
Either 1×10^3-4.8×10^3 or 4×10^2-1.2×10^3 cells were seeded to each well of 96- or 384-well white polystyrene flat-bottomed plates (3610 or 8804BC, Corning) in 100 μL or 30 μL media per well, respectively. The concentrations used were experimentally determined to ensure logarithmic growth during the duration of the experiment and prevent adverse effects on cell growth by DMSO exposure. The plates were incubated at 37° C. in 5% CO2 for 24 h before treatment. Stock solutions of test compounds (10 mM in DMSO) in nine 3-fold serial dilutions were dispensed via pintool (Biomek). The final concentration of DMSO was 0.3% (v/v) in each well. The plates were incubated for 72 h at 37° C. in 5% CO2 and then quenched with CellTiter-Glo® reagent (50 μL/well in 96-well plate, 30 μL/well in 384-well plate) at RT. The positive controls included staurosporine (10 μM), gambogic acid (10 μM), and a toxic quinoline generated in-house. Plates were then incubated at RT for 20 min and centrifuged at 1000 rpm for 1 min. The cytotoxicity assay was performed by using the CellTiterGlo Luminescent Cell Viability Assay kit (G7570, Promega, Madison, WI) according to the manufacturer's instructions. Luminescence was recorded in an Envision plate reader (Perkin Elmer).
(§3) For the CTG assay, 3 or 4 replicate assays were conducted for each experimental condition, and a minimum of 3 independent experiments were conducted for cellular assays. The mean luminescence of each experimental treatment group was normalized as a percentage of the mean intensity of untreated controls. EC50 values (μM) were calculated by Pipeline Pilot Software (Accelrys, Enterprise Platform, CA, USA). EC50 values (μM) from the viability assay were calculated from dose response curve-fitting via non-linear regression by using GraphPad Prism (Version 7.0 San Diego, CA).
Series [5] relates to SUM-149 cells. The series can be described thus: Invasion assay (Transwell, Matrigel). Format: cell-based, human. As to conditions: 72 h. The procedure:
Previously, the anti-migratory activities of whole mushroom GLE in SUM-149 cells was reported. To investigate EP's effects on cell migration, Boyden chamber assays; while to investigate invasion, Transwell chambers were used. […] Furthermore, an additional decrease (43%) was seen when cells were treated with a non-lethal dose of 15 μM of EP (P<0.01) (FIG. 8B).
Cell migration and invasion were measured by using Corning® FluoroBlok™ Cell Culture Inserts and performing BD BioCoat Matrigel invasion assays (BD Biosciences, San José, Calif.) as described in [12, 14].

The test system of the next series is MCF10A. The class given is cell-based.
The next series has as its system MDA-MB-231 TNBC cells. The series can be described thus: Cell viability assay (CellTiter-Glo or PI staining). The class given is cell-based. The settings on record: Homo sapiens, MDA-MB-231, read-out: EC50, MDA-MB-231 cell viability; FIG. 4E.
A further series concerns T47D. The series can be described thus: Cytotoxicity of EP probes via CTG assay. Format: cell-based. The settings on record: Homo sapiens, T47D, 72 hr.
The nature of the next series: Solubility observations. Format: physicochemical. As for the experimental part: One of the liabilities with EP is sharing its core with cholesterol, an amphipathic molecule with part-water soluble, part-water insoluble character. Thus, while able to readily cross the cell membrane, the ability to deliver the pure compound faces challenges. EP's solubility properties are poor in DMSO or water unless warmed up to 30° C. However, in this report, EP's derivative, EP sulfonamide, was soluble at 10 mM in DMSO. Thus, the generation of a selective anti-cancer compound with greater potency than EP, and ample therapeutic window when compared to BJ normal cells, was accomplished.

Series [6] is classed as physicochemical. As to conditions: 168 hr at RT.
The subject of a further series is MDA-MB-231. In words: Cytotoxicity of EP probes via CTG assay. The class given is cell-based, human. The settings on record: Homo sapiens, MDA-MB-231, 72 hr, read-out: MDA-MB231 EC50.

pEC50: −log10 of the molar value. Read-outs that look alike come from different tables or passages of the source.

Description for MCF10A: As a control, normal human skin fibroblasts (BJ) cells and non-cancerous mammary epithelial cells (MCF10A) were used.
Cell viability assays (MTT or PI staining assays) in SUM-149, SUM-190, MDA-MB-231, and MCF10A cells were performed as we previously described [14].
Description for MDA-MB-231 TNBC cells: as §2
Either 1×10^3-4.8×10^3 or 4×10^2-1.2×10^3 cells were seeded to each well of 96- or 384-well white polystyrene flat-bottomed plates (3610 or 8804BC, Corning) in 100 μL or 30 μL media per well, respectively. The concentrations used were experimentally determined to ensure logarithmic growth during the duration of the experiment and prevent adverse effects on cell growth by DMSO exposure. The plates were incubated at 37° C. in 5% CO2 for 24 h before treatment. Stock solutions of test compounds (10 mM in DMSO) in nine 3-fold serial dilutions were dispensed via pintool (Biomek). The final concentration of DMSO was 0.3% (v/v) in each well. […] Luminescence was recorded in an Envision plate reader (Perkin Elmer).
as §3
Description for T47D: Both normal cell lines HMEC and BJ cells were also evaluated to determine therapeutic index.
The concentrations used were experimentally determined to ensure logarithmic growth during the duration of the experiment and prevent adverse effects on cell growth by DMSO exposure. The plates were incubated at 37° C. in 5% CO2 for 24 h before treatment. Stock solutions of test compounds (10 mM in DMSO) in nine 3-fold serial dilutions were dispensed via pintool (Biomek). The final concentration of DMSO was 0.3% (v/v) in each well. The plates were incubated for 72 h at 37° C. in 5% CO2 and then quenched with CellTiter-Glo® reagent (50 μL/well in 96-well plate, 30 μL/well in 384-well plate) at RT. The positive controls included staurosporine (10 μM), gambogic acid (10 μM), and a toxic quinoline generated in-house. Plates were then incubated at RT for 20 min and centrifuged at 1000 rpm for 1 min. The cytotoxicity assay was performed by using the CellTiterGlo Luminescent Cell Viability Assay kit (G7570, Promega, Madison, WI) according to the manufacturer's instructions. Luminescence was recorded in an Envision plate reader (Perkin Elmer).
as §3

Turning to `CC(C)[C@@H](C)/C=C/[C@@H](C)[C@H]1CC[C@@H]2[C@]1(C)CC[C@H]1[C@]23C=C[C@]2(C[C@@H](O)CC[C@]12C)OO3` [EP, ergosterol peroxide], in the series with SUM-149 cells [1], the “number and size of colonies formed” value is reported as “concentration-dependent decrease”. For the same molecule, the “increase in percentage of cells in G1 phase” value in the series with SUM-149 cells [2] is roughly 20%. Moreover, in the series on SUM-149 cells [2], the “reduction of the percentage of cells in G2/M” value is 10%. The “tumor growth rate (GFP fluorescence integrated density relative to week 5)” value in the series with MDA-MB-231 GFP tumors is recorded as “significantly decreases”. Moreover, the “decrease of live cells (Annexin−, 7AAD−)” value with SUM-149 cells [3] was roughly 15%. Further, in the series with SUM-149 cells [3], the “percentage of cells in early apoptosis (Annexin+, 7AAD−)” value was “significantly increased”. The pEC50 with SUM-149 was 5.22; with SUM-149 cells [4] (SUM149, 24 h), 4.47; in the series with SUM-149 cells [4] (SUM149, 72 h) it was 4.70; in the series on MDA-MB-231 TNBC cells, 4.72; with T47D it was 4.72; in the series on MDA-MB-231, 4.74. The “concentration at which SUM-149 cell viability is significantly reduced” value in the series on SUM-149 cells [4] (72 h) was 8 µM. Moreover, in the series with SUM-149 cells [5] (10 μM), the invading cells entry was “significant reduction”. In addition, the decrease in invasion in the series with SUM-149 cells [5] (15 μM) came out at 43%. In addition, in the series on MCF10A, the “cytotoxicity in MCF10A non-cancerous mammary epithelial cells” value was “did not induce cytotoxicity”. Besides, the “solubility properties (in words)” value in the series “Solubility observations” is reported as “poor”. The precipitation on standing result in [6] is on record as “precipitation”.

By pEC50 is commonly meant the negative decadic logarithm of the EC50, by convention in mol/L.

The values above are taken from patent US12263177B2, “Biologically active ganoderma lucidum compounds and synthesis of anticancer derivatives; ergosterol peroxide probes for cellular localization” (priority 2019, dated 2025).
